Results as given in patent publication US10597368B2, “Syringolin analogues and methods of making and using same” (BROWN UNIVERSITY, priority 2015, dated 2020).

Legend:
HL-60 = test: NCI dose-dependent growth inhibition, HL-60; assay type: cell-based; settings: Homo sapiens; HL-60, 48-h exposure
Text: (§1) The three compounds were particularly active against leukemia cell lines. […] Without wishing to be limited by any theory, such differences in biochemical and biological patterns may be explained by differences in the cell permeabilities or stabilities of the two compounds. […] Data provided by the National Cancer Institute (NCI): […] The optical density of the test well after a 48-h period of exposure to test drug is T, the optical density at time zero is T0, and the control optical density is C. The “50” is called the […] parameter that can have values from +100 to -100.

K-562 = test: NCI dose-dependent growth inhibition, K-562; assay type: cell-based; settings: Homo sapiens, K562; K-562, 48-h exposure
Text: as §1

MOLT-4 = test: NCI dose-dependent growth inhibition, MOLT-4; assay type: cell-based; settings: Homo sapiens; MOLT-4, 48-h exposure
Text: as §1

RPMI-8226 = test: NCI dose-dependent growth inhibition, RPMI-8226; assay type: cell-based; settings: Homo sapiens; RPMI-8226, 48-h exposure
Text: as §1

SR = test: NCI dose-dependent growth inhibition, SR; assay type: cell-based; settings: Homo sapiens, 48-h exposure
Text: as §1

[1] = molecular target: T1, human 20S proteasome (hs20S), chymotrypsin-like β5-subunits (Homo sapiens, UniProt P20618+P28074); test: In vitro 20S peptidase inhibition kinetics, chymotrypsin-like activity (Suc-LLVY-AMC); assay type: biochemical; settings: second-order rate constant, Suc-LLVY-AMC substrate, 37° C.
T1 construct: purchased R&D
Experimental: In vitro 20S peptidase inhibition assays were recorded in a 384-well plate at a SpectraMax M5 (Molecular devises) plate-reader. Therefore, 5 nM human 20S (R&D) was incubated in buffer R (50 mM HEPES-KOH, pH 7.5, 0.5 mM EDTA) with 100 μM of the fluorogenic peptide substrates Suc-LLVY-AMC or Boc-LRR-AMC. Reactions were started by adding various amounts of inhibitors (5 nM to 500 μM) to a final volume of 30 μL and peptide hydrolysis was continuously monitored for 90 min by changes in fluorescence (excitation 380 nm; emission 440 nm) at 37° C. The kobs values were determined by fitting the raw data to equation (1). The slopes of the plots of kobsversus I gave an apparent value of kobs/I, also referred to as kinact/Ki for an irreversible inhibitor, which was then corrected by equation (2) to compensate for the effect of substrate competition, where app is the apparent value at different inhibitor concentrations.
Using purified human 20S proteasome (hs20S) and a fluorogenic substrate (Suc-LLVY-AMC), in vitro assays were performed to systematically assess proteasome inhibition by the syringolin analogues. The choice of substrate was based on the fact that it is preferentially acted upon by the chymotrypsin-like β5-subunits of the proteasome due to the aromatic tyrosine residue at the scissile bond (i.e., P1 position).
From measurements of the rates of hydrolysis of the fluorogenic substrate by the proteasome in the presence of increasing concentrations of each inhibitor, second-order rate constants kin/Ki (M^−1 s^−1) were determined (Table 1), which reflect both the affinity of the non-covalent binding (Ki) and the rate of the chemical reaction with the enzyme (kin). All of the syringolin analogues were capable in inhibiting the chymotrypsin-like activity of hs20S. Without wishing to be limited by any theory, consistent with the design predictions, the most significant contributor to the apparent second-order rate constants of the compounds was their binding affinity (Ki) rather than the rates of inhibition.
In vitro 20S peptidase inhibition assays were recorded in a 384-well plate at a SpectraMax M5 (Molecular Devices) plate-reader. Therefore, 5 nM human 20S (R&D) was incubated in buffer R (50 mM HEPEs-KOH, pH 7.5, 0.5 mM EDTA) with 100 μM of the fluorogenic peptide substrate Suc-LLVY-AMC. Reactions were started by adding various amounts of inhibitors 5 nM to 500 μM) to a final volume of 30 μL and peptide hydrolysis was continuously monitored for 90 minutes by changes in fluorescence (excitation 380 nm; emission 440 nm) at 37 degrees Celsius. The kobs values were determined by fitting the raw data to equation 1. The slopes of the plots of kobs versus I gave an apparent value of kob/I, also referred to as kinact/Ki for an irreversible inhibitor, which was then corrected by equation 2 to compensate for the effect of substrate competition, where app is the apparent value at different inhibitor concentrations.

[2] = test system: 60 different cancer cell lines; test: NCI single-dose growth assay with 60 cancer cell lines; assay type: cell-based; settings: 10 μM, average over the panel of cell lines
Experimental: FIG. 6 illustrates the in vitro inhibition results for compound 1, while FIG. 7 illustrates the in vitro inhibition results for compound 13. FIG. 8 illustrates the in vitro inhibition results for compound 14, while FIG. 9 illustrates the in vitro inhibition results for compound 15. FIG. 10 illustrates the in vitro inhibition results for compound 16. […] Specifically, cell lines incubated in media with 10 μM of compound 15 grew at an average of 30% of those incubated in media without compound. The mean growth of the cell lines in media with the same concentration of compound 16 was approximately 71% of those in negative control experiments.

leukemia cell lines = test: NCI dose-dependent growth inhibition, leukemia cell lines overall; assay type: cell-based; settings: as much as, fold more potent
Text: as §1

Row | hs20S kin/Ki [1] | SMILES | GI50 (HL-60) [µM] | GI50 (K-562) [µM] | GI50 (MOLT-4) [µM] | GI50 (RPMI-8226) [µM] | GI50 (SR) [µM] | mean growth of cell lines relative to media without compound [2] | potency relative to syringolin B methyl ester (1) against the leukemia cell lines (leukemia cell lines) [fold]
1 | – | COC(=O)[C@@H](NC(=O)N[C@H](C(=O)N[C@H]1CCCCNC(=O)/C=C/[C@H](C(C)C)NC1=O)C(C)C)C(C)C [Compound 1, Syringolin B Methyl Ester, reference compound] | 5.41 | 6.12 | 4.73 | 3.97 | 5.13 | – | –
2 | 4,199 M^−1s^−1 | COC(=O)[C@@H](NC(=O)N[C@@H](Cc1ccccc1)C(=O)N[C@H]1CCCCNC(=O)/C=C/[C@H](Cc2ccccc2)NC1=O)C(C)C [Compound 15, (S)-methyl 2-(3-((S)-1-(((5S,8S,E)-5-benzyl-2,7-dioxo-1,6-diazacyclododec-3-en-8-yl)amino)-1-oxo-3-phenylpropan-2-yl)ureido)-3-methylbutanoate] | 4.34 | 14.6 | 3.32 | 2.72 | 2.78 | 30% | –
3 | – | COC(=O)[C@@H](NC(=O)N[C@@H](Cc1ccccc1)C(=O)N[C@H]1CCCCNC(=O)/C=C/[C@H](Cc2c[nH]c3ccccc23)NC1=O)C(C)C [Compound 16] | 1.29 | 2.94 | 0.599 | 0.343 | 0.453 | approximately 71% | ≤ 11.5
